Values after ≈ are worked out from the molar mass of the structure shown.

The target of one series is T1, cryptococcal urease (Cryptococcus neoformans, UniProt O13465).
T1 construct: 100 μL of crude protein extract; endogenous in cells; host or cells: Cryptococcus neoformans ATCC 34872, crude lysate (glass-bead lysis, supernatant)
Nature of the series: Urease activity inhibition test (indophenol method, crude protein extract). In kind it is biochemical. As for the experimental part: Five colonies of C. neoformans were suspended in 100 μL SD broth and inoculated onto SD agar using a Drigalski spreader, and the culture was incubated at 37°C for 48 h. Afterward, all fungal growth was gently scraped and transferred to conical flasks containing 300 mL of SD broth and incubated with shaking (150 rpm) at 37°C for further 48 h. Cells were centrifuged (6,000 × g, 10 min) and washed three times with distilled water. The protein extraction was performed according to [Moller et al. (2016)] with modifications. Briefly, fungal cells were resuspended in 10 mL of chilled lysis buffer consisting of 100 μM Nα-tosyl-L-lysine chloromethyl ketone hydrochloride (TLCK), 1 mM EDTA, 10% glycerol and 0.15 M phosphate-buffered saline (PBS), pH 8.0. […] Then, the cell debris was removed by centrifugation (6,000 × g, 15 min, 4°C), and the protein content of the resulting supernatant was quantified using the […].
The inhibition of urease activity was evaluated by the indophenol method ([Weatherburn, 1967]). […] The reaction mixtures were incubated for further 10 min at 45°C, and the optical density (OD) was measured at 630 nm. Urease inhibition percentage (I%) was calculated according to the equation: I% = 100–(ODBTU–01/ODcontrol) × 100. […]

The test system of a further series is Cryptococcus neoformans. Nature of the series: Checkerboard broth microdilution assay on planktonic cells. As to conditions: both strains (ATCC 34872 and 1172). The class given is cell-based. How it is done: The antifungal effect of BTU-01 combined with AmB was evaluated using the checkerboard broth microdilution assay, according to [Scott et al. (1995)]. Twofold serial dilutions of BTU-01 (0.03–1000.0 μg/mL) and AmB (0.000001–16.0 μg/mL) were respectively added across the rows and columns of the U-bottom 96-well microtiter plates. Thereafter, 100 μL (0.5–2.5 × 10^3 CFU/mL) of fungal inoculum was added and the plates were incubated at 37°C for 72 h. The Fractional Inhibitory Concentration (FIC) of each compound was determined by the ratio of the MIC obtained when the compounds were tested in combination and the MIC of the compounds tested individually. The FIC Index (FICI) was calculated from the sum of the FICBTU–01 and FICAmB, and the value was interpreted as: synergism FICI ≤ 0.5, no interaction 0.5 < FICI < 4.0, and antagonism FICI > 4.0 ([Odds, 2003]).

The nature of series [1]: Cytotoxicity, MTT reduction assay, ranges over all cell lines. As to conditions: different cell lines. The class given is cell-based. How it is done:
The effect of BTU-01 was analyzed on mammalian epithelial cell lines [HEp-2 CCL-23™ (ATCC), LLC-MK2, VERO CCL81 and HeLa (Merck, Brazil)], and the cytotoxicity was evaluated as described by [Longhi et al. (2016)] with modifications. Briefly, cells were cultured in Dulbecco’s Modified Eagle’s medium (DMEM) supplemented with 10% fetal bovine serum (Invitrogen, Brazil), 2 mM L-glutamine, 100 IU/mL penicillin, 100 μg/mL streptomycin, 1% tylosin in flat-bottomed 96-well microtiter plates, in 5% CO2 at 37°C for 48 h. Then, the medium was carefully removed and fresh medium containing twofold serially diluted BTU-01 (0.095–500.0 μg/mL) was added. The cells were incubated for further 24 h under the same conditions. Cell viability was analyzed by the MTT reduction assay according to the manufacturer’s recommendation. The concentration of the compound needed to inhibit the viable cells up to 50 and 90% by regression analysis corresponds to the 50% (CC50) and 90% (CC90) cytotoxic concentrations, respectively.
The concentration of BTU-01 capable of causing 90% of hemolysis/cytotoxicity was used to calculate the selectivity index (SI) using the following equation: SI = CC90/MIC.

T1 sequence (O13465 whole entry): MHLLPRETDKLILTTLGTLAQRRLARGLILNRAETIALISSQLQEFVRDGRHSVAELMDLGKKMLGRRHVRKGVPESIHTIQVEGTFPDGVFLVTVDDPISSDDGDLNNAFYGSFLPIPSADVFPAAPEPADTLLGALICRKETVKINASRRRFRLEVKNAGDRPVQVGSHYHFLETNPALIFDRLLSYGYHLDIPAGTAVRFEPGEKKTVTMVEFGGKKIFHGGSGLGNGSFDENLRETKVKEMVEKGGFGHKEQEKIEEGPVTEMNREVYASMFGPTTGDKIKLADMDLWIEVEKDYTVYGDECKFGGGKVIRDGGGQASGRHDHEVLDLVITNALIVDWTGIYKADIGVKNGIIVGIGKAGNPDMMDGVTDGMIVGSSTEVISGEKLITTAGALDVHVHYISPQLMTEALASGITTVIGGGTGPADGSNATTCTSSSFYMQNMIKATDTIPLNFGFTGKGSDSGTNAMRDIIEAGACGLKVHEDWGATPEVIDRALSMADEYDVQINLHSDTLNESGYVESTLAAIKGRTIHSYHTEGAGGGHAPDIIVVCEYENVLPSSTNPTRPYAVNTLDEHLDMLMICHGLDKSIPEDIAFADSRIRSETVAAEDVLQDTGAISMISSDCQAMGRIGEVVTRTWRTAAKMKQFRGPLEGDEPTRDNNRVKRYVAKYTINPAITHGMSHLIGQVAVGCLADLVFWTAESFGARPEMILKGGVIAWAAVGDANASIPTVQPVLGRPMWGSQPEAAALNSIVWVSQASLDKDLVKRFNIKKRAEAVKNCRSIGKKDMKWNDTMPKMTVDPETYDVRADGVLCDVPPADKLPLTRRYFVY

Consider `CCCCNC(=S)NC(=O)c1ccccc1` [BTU-01, N-(butylcarbamothioyl) benzamide], for which, on cryptococcal urease, the IC50 was 226 µM. Besides, the “decrease in MIC value in combination” value in the series with Cryptococcus neoformans was 16 fold. Further, the CC50 at 24 h in series [1] (read-out: CC50, range over cell lines) lay in the range of 61 to 121 µg/mL (≈ 258 to 513 µM). The CC90 at 24 h in series [1] (read-out: CC90, range over cell lines) was 143 to 244 µg/mL (≈ 603 to 1030 µM).

These data come from PMC10028264, “Synergistic antifungal interaction of N-(butylcarbamothioyl) benzamide and amphotericin B against Cryptococcus neoformans” (Frontiers in Microbiology, 2023).
